The subject of series [1] is A253 squamous cell carcinoma of the head and neck xenografts. Briefly: Cure rate / antitumor activity in nude mice bearing A253 head and neck xenografts. The format is in vivo. How it is done:
(§1) 5-Methylselenocysteine (MSC). Two schedules were evaluated: 1) in combination with irinotecan, MSC (0.2 mg/mouse/d×28) was administered orally for 28 days with the first dose administered daily for seven days prior to the weekly drug administration and 2) in combination with other drugs, MSC was administered orally (0.2 mg/mouse/d×14) daily for 14 days with the first dose administered daily for seven days prior to the single i.v. administration of taxol, CDDP, Dox, taxotere and cyclophosphamide.
(§2) Anticancer drug administration. The anticancer drugs administration schedule was as follows. • i. Irinotecan (CPT-11), weekly i.v. push for four (4) weeks, • ii. Taxol, single i.v. push, • iii. Cisplatin (CDDP), single i.v. push. • iv. Doxorubin (Dox), single i.v. push. • v. Cyclophosphamide, single i.v. push. • vi. Oxaliplatin, single i.v. push • vii. Taxotere, single i.v. push
Tumor Xenografts. […] The following tumor xenografts were established. • i. HCT-8: poorly-differentiated colon carcinoma, expressing wild type p53 • ii. HT-29: well-differentiated colon carcinoma expressing mutant p53 • iii. A253: well-differentiated squamous cell carcinoma of the head and neck (SCCHN) expressing no p53 • iv. FaDu: poorly-differentiated squamous cell carcinoma of the head and neck (SCCHN) expressing mutant p53
This example describes the comparative antitumor activity of MSC and SLM in combination with the maximum tolerated dose of irinotecan. […] As an illustration, MSC and SLM were used in combination with irinotecan. The results, shown in FIG. 3, represent a comparative evaluation of the effect of MSC and SLM (0.2 mg/mouse/d×28) on the antitumor activity of irinotecan (100 mg/kg/wk×4).
To determine whether therapeutic synergy achieved with irinotecan in xenografts is specific for MSC, the antitumor activity of irinotecan with and without two selenium-containing compounds, MSC and SLM were compared in xenografts bearing A253 (SCCHN) tumors for the […] (200 mg/kg/wk×4). The data compare the antitumor activity of MSC with SLM in combination with irinotecan (200 mg/kg/wk×4).
(§3) This example describes the modulation of the antitumor activity of anticancer drugs by MSC in mice bearing human tumors. […] To determine whether modulation of the therapeutic efficacy and cure of irinotecan by MSC is drug specific, the antitumor activity of drugs, representing different classes and mechanisms of action were evaluated alone and in combination with non-toxic doses and schedules of MSC (0.2 mg/mouse/d×14) in xenografts bearing human A253 and FaDu (SCCHN) tumors (FIG. 5). The data in FIG. 5 represent the use of the MTD doses of cisplatin (8 mg/kg×1), cyclophosphamide (100 mg/kg×1), taxol (35 mg/kg ×1.) and doxorubicin (10 mg/kg×1).

The next series deals with nude mice. The note with it: taxotere 100 mg/kg single i.v.
The next series in a line: in vivo. The settings on record: nude, mouse.
For series [2], the system named is FaDu squamous cell carcinoma of the head and neck xenografts. Briefly: Cure rate / antitumor activity in nude mice bearing FaDu head and neck xenografts. The format is in vivo. The procedure: as §1, §2
Tumor Xenografts. […] The following tumor xenografts were established. • i. HCT-8: poorly-differentiated colon carcinoma, expressing wild type p53 • ii. HT-29: well-differentiated colon carcinoma expressing mutant p53 • iii. A253: well-differentiated squamous cell carcinoma of the head and neck (SCCHN) expressing no p53 • iv. FaDu: poorly-differentiated squamous cell carcinoma of the head and neck (SCCHN) expressing mutant p53 […]
as §3
In mice, MSC was orally administered at 0.2 mg/mouse/d with the first daily dose administered seven days prior to single i.v. administration of drug and continuous for additional seven days for a total MSC treatment of 14 days.

For the compound `CC(=O)O[C@@]12CO[C@@H]1C[C@H](O)[C@@]1(C)C(=O)[C@H](O)C3=C(C)[C@@H](OC(=O)[C@H](O)[C@@H](NC(=O)OC(C)(C)C)c4ccccc4)C[C@@](O)([C@@H](OC(=O)c4ccccc4)[C@H]21)C3(C)C` [Taxotere], the “CR (%) (complete tumor regression)” value in series [1] was 0%; in series [2] (Table 3 first column pair (head printed 'FaUra'), drug dose mg/kg and MSC mg/mouse/day in parentheses of Treatment, schedules per footnote), 0%. In addition, the “PR (%) (partial tumor regression, >50% tumor reduction)” value in series [1] came to 20%; in series [2] (Table 3 first column pair (head printed 'FaUra'), drug dose mg/kg and MSC mg/mouse/day in parentheses of Treatment), 40%. Further, the “animals cured of their tumors” value in series [1] (A253, taxotere 60 mg/kg single i.v., alone or with MSC 0.2 mg/mouse/d × 14) is listed as “insensitive”; in series [2] (FaDu, taxotere 60 mg/kg single i.v., alone or with MSC 0.2 mg/mouse/d × 14) it was “insensitive”. In the series with nude mice, this compound gave a lethality of 40%. The compound further came in with an MTD in the series “in vivo” of 60 mg/kg.
